In one data set the target is X. tropicalis Tmem16a (Xenopus tropicalis, UniProt W8PFC5). As to the kind of experiment: Whole-cell patch clamp (QPatch) of X. tropicalis Tmem16a transfected into HEK293 cells. Format: cell-based. Here is the method:
We cloned and expressed full-length X. tropicalis tmem16a in HEK293 cells. At 48 h post-transfection, channel conductance and pharmacological characteristics were examined by whole-cell voltage clamp. Tmem16a channel activity was evoked using membrane depolarisation in the presence of intracellular calcium, and resultant whole-cell currents measured using chloride-selective buffers.
HEK Flp-In-293 null cells (Thermo Fisher) were stored, thawed and cultured as described by the supplier, but without antibiotic supplementation of the growth medium. For transfections, cells were seeded in 75 cm^2 vented culture flasks at a density of 0.018 × 10^6 cells per cm^2 and maintained at 37 °C in 5% CO2 for 24 h, to ensure approximately 40% confluence at the point of transfection. Cells were transfected with 6 µg of pCS2-tmem16a plasmid in a 1:6 volume ratio with transfection reagent GeneJammer (Agilent), according to the manufacturer’s protocol. Transfected cells were maintained in antibiotic-free growth medium at 37 °C in 5% CO2 for 24 h. The transfection medium was then aspirated, replaced with complete growth medium containing 1% penicillin-streptomycin (GIBCO), and cells cultured for a further 24 h at 37 °C in 5% CO2 to achieve 70–80% confluence prior to electrophysiology studies. HEK cells expressing Tmem16a were harvested using a 2:1 volume ratio of Detachin (AMSBio) and 0.05% Trypsin-EDTA (GIBCO), and resuspended in CHO serum-free medium (GIBCO) supplemented with 25 mM HEPES (GIBCO) and 0.04 mg ml^−1 trypsin inhibitor (Sigma Aldrich) to a density of 2.5-5.0 × 10^6 cells ml^−1. […] To prevent clumping of the suspended cells prior to assay, the cell suspension was maintained by stirring gently but continually at room temperature for 20 min to 2 hours.
Single cell whole-cell patch clamp recordings were performed using the QPatch planar patch-clamp system (Sophion Biosciences). The automated platform resuspended the cells in extracellular buffer containing NMDG-Cl (130 mM), HEPES (10 mM), CaCl2 (2 mM) and MgCl2 (1 mM), adjusted to pH 7.30 using HCl and 325 mOsm using sucrose. On establishing single-cell giga-Ohm seals, cell membranes were ruptured by suction pulse and dialysed with intracellular solution containing NMDG-Cl (130 mM), EGTA (20 mM), CaCl2 (20 mM; calculated to deliver a free intracellular [Ca^2+] of 338 nM (https://somapp.ucdmc.ucdavis.edu/pharmacology/bers/maxchelator/webmaxc/webmaxcE.htm) at 22 °C to achieve high Tmem16a-mediated current activation for testing inhibitor compounds), HEPES (10 mM), BAPTA (10 mM), MgCl2 (1 mM) and Mg-ATP (2 mM), adjusted to pH 7.25 using HCl and 325 mOsm using sucrose. The calcium activation curve was achieved by varying CaCl2 concentration from 0 to 25.7 mM to generate a 0-1000 nM range of free intracellular [Ca^2+].
Whole-cell recordings were performed from a resting membrane potential of - 70 mV, applied across the cell membrane between an intracellular (working) and extracellular (reference) electrode in each QPatch recording well. To activate Tmem16a currents, the membrane was depolarised once every 20 s for a duration of 1 s. For concentration-response experiments, this depolarising step was set to + 70 mV. To test current-voltage relationship, the depolarisations were varied between − 90 and + 90 mV in 20 mV increments. Signals were subject to fourth-order Bessel filtering (sampling frequency 10 kHz, cut-off 3 kHz). Capacitance and series resistance were monitored throughout the recordings; data was only accepted from wells in which these parameters remained stable.
All current data was captured at the end of the 1 s depolarising voltage step.

For a further data set, the system named is human TMEM16Aacd. The settings on record: cited from earlier work.
For the next data set, the system named is human TMEM16Aabc. The settings on record: whole-cell patch clamp ref 65; cited from earlier work. Background: The patch-clamp technique gives a direct electrical read-out from membranes.
Data set [1] relates to background chloride current of sham HEK-293 transfects. As to the kind of experiment: Whole-cell patch clamp of sham-transfected HEK cells (background chloride current). Format: cell-based. To be noted: 100 µM CaCCinh-A01. The source says: Methods: Pharmacology data was generated from 16 QPatch runs. […] This definition of ‘transfected’ vs ‘untransfected’ was established by comparing transfected cell recordings with ‘sham’ transfects, i.e. cells that had undergone the same transfection process but with the omission of plasmid DNA (Supplementary Figure S1). […] Cells with these characteristics were deemed to be expressing X. tropicalis Tmem16a, and only recordings from successfully-transfected cells which additionally passed seal/series resistance and capacitance quality control criteria, were used in analysis of X. tropicalis Tmem16a currents.

The test system of a further data set is human TMEM16A. To be noted: cited from earlier work.
The next data set relates to Tmem16a. The experiment in a line: Wholemount immunofluorescence for Tmem16a in tadpole skin after morpholino injection. The format is in vivo, Xenopus tropicalis. To be noted: 15 ng MO injected into fertilised egg, tadpoles at NF38, vs MOC. The method, then:
(§1) Embryos for microinjection were de-jellied for approximately five minutes in 0.1 X MMR containing 2% (w/v) L-cysteine (pH 7.8), and washed several times in 0.1 X MMR. Microinjections were performed at NF1/fertilised egg (or, where indicated in the text, NF4/8-cell stage) using a Picospritzer III microinjector (Intracel) to inject 1–4 nl volumes. During injection and for one hour after, embryos were maintained in 0.1 X MMR containing 2% (w/v) Ficoll™ 400 (Thermo Fisher). Antisense morpholino oligonucleotides (MO) and standard control MO (MOC) were designed by and purchased from Gene Tools LLC. MO sequences were: MOC 5′-[…]-3′; tmem16a splice MO 5’-[…]-3’. MOs were reconstituted to 20 ng nl^−1 in non-DEPC-treated nuclease-free water (Thermo Fisher) and stored in small aliquots in tightly-sealed vials at room temperature. MOs were heated at 65 °C for five minutes then vortexed before dilution/use, to ensure the MO was fully dissolved. […]
Wholemount chromogenic and fluorescence in situ hybridisation was performed as previously described[84],[85]. […] Chromogenic staining and fluorescence were visualised by stereomicroscopy (Leica M165 FC using Leica Application Suite X v5.2.2 software) and fluorescence by confocal imaging (Olympus IX81 using FV10-ASW v4.2 software). […] Fiji v2.14.0 software[88] was used to convert images into colours accesible to colour-blind readers.

The test system of data set [2] is MucXS secretion from tadpole skin. The experiment in a line: Ionomycin-induced MucXS secretion into tadpole media (slot blot, anti-MucXS). Format: in vivo, Xenopus tropicalis. To be noted: 10 min, MO- vs MOC-injected embryos, three biological replicates, p = 0.0062. The method, then:
as §1
Batches of 100 NF42 embryos were collected in 500 µl 0.01 X MMR in a single well of a 24-well plate. […] MucXS in unfractionated or fractionated media was detected via slot blotting and subsequent immunodetection with an anti-MucXS antibody. Quantification of signal from slot blots was achieved using Fiji v2.14.0 software to capture the raw integrated density of pixels for each signal band. […]

Setting [3] is: maximally-active current, 338 nM free [Ca2+]i (EC100), +70 mV, HEK293, mean ± SEM, read-out: IC50 X. tropicalis Tmem16a.

Like-named read-outs stand apart in the source and are kept apart here.

As a reminder, the IC50 is the concentration at which inhibition is half-maximal. Usually EC50 stands for the midpoint of the concentration-response curve.

Sequence of X. tropicalis Tmem16a (W8PFC5 entry or part of it): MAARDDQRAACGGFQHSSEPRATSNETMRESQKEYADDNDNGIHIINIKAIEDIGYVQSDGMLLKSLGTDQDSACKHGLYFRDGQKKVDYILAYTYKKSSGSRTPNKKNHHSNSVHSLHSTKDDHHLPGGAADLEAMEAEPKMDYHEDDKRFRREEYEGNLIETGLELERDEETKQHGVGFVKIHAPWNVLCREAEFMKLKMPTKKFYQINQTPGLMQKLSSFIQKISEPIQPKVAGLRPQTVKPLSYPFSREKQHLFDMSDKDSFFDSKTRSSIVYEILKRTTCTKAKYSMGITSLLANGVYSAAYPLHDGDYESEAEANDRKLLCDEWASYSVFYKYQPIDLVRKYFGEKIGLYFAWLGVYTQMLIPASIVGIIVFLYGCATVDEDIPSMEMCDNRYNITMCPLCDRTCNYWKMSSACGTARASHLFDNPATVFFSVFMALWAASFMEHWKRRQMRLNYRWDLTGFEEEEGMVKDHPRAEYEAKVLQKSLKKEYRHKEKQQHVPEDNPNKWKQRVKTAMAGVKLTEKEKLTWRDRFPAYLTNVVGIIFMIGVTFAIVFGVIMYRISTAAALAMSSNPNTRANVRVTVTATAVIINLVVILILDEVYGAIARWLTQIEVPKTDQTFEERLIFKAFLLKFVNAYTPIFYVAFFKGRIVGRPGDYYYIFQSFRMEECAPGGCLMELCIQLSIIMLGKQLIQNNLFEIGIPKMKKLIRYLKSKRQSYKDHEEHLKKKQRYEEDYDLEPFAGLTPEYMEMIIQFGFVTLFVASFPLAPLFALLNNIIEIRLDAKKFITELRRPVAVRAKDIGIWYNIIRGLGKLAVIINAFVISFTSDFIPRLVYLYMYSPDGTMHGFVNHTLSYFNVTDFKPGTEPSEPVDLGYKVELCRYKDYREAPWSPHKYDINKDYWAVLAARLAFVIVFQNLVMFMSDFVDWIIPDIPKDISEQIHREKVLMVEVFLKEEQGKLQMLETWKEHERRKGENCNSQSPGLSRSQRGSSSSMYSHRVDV

Regarding `O=C(O)c1c2ccccc2cc2ccccc12` [9-AC], the IC50 was 146 ± 65.8 µM at X. tropicalis Tmem16a (setting [3]) and 57.7 µM with human TMEM16Aacd (whole-cell patch clamp ref 60).
As to `COc1ccccc1/C=N/NC(=O)COc1ccc(Cl)cc1C` [Ani9], the “Block of large slowly-activating current in tmem16a-transfected cells” value on X. tropicalis Tmem16a (10 µM Ani9) is reported as “sensitivity to block”. For the same molecule, on X. tropicalis Tmem16a (10 µM Ani9, 1 s step from -70 to +70 mV, 338 nM free [Ca2+]i), the “Inhibition of evoked Tmem16a current” value was “completely inhibited”. Besides, on X. tropicalis Tmem16a (10 µM Ani9, all calcium concentrations, fixed depolarisation voltage), the “Inhibition of Tmem16a current conductance at varied [Ca2+]i” value is listed as “inhibited at all calcium concentrations”. At X. tropicalis Tmem16a (setting [3]), the IC50 turned out to be 0.098 ± 0.009 µM.
In the case of `CCc1oc2ccccc2c1C(=O)c1cc(Br)c(O)c(Br)c1` [Benzbromarone], the IC50 is 3.3 ± 1.45 µM at X. tropicalis Tmem16a, 4.09 µM in the data set with human TMEM16Aacd (whole-cell patch clamp ref 63), 2.35 µM with human TMEM16Aacd (whole-cell patch clamp ref 64) and 3.05 µM with human TMEM16Aabc.
In the case of `O=C(O)c1ccc(/C=C2\SC(=S)N(c3cccc(C(F)(F)F)c3)C2=O)cc1` [CFTR Inh-172], the IC50 on X. tropicalis Tmem16a (setting [3]) is above 30 µM.
Consider `CC(C)(C)C1CCc2c(sc(NC(=O)c3ccco3)c2C(=O)O)C1` (stereo not shown) [CaCCinhA01], for which the “Block of large slowly-activating current in tmem16a-transfected cells” value on X. tropicalis Tmem16a (100 µM CaCCinh-A01) is reported as “sensitivity to block”. The figures for the IC50 at X. tropicalis Tmem16a (setting [3]) and in the data set with human TMEM16A (whole-cell patch clamp ref 62) were 12.9 ± 1.96 µM and […], respectively. Further, the “Block of background chloride current in sham transfects” value in data set [1] was “blocked”.
For the molecule `COC1=C(OC)C(=O)C(CCCCCCCCCCO)=C(C)C1=O` [Idebenone], the half-maximal inhibitory concentration (IC50) at X. tropicalis Tmem16a (setting [3]) was above 30 µM. Moreover, the “% inhibition human TMEM16A by 10 µM” value in the data set on human TMEM16A (10 µM, whole-cell patch clamp ref 61) is reported as 54%. The “% inhibition human TMEM16A by 30 µM” value in the data set on human TMEM16A (30 µM, whole-cell patch clamp ref 61) is on record as 90%.
With `COc1cc(Nc2ccc([N+](=O)[O-])cc2C(=O)O)cc2ccccc12` [MONNA], the figures for the IC50 at X. tropicalis Tmem16a (setting [3]) and with human TMEM16Aacd (whole-cell patch clamp ref 63) were 11.9 ± 3.45 µM and 13.6 µM, respectively.
As to `O=C(O)c1cccnc1Nc1cccc(C(F)(F)F)c1` [Niflumic acid], the IC50 at X. tropicalis Tmem16a is 85.1 ± 19.1 µM; in the data set on human TMEM16Aacd (whole-cell patch clamp ref 60), 12.1 µM; in the data set on human TMEM16Aacd (whole-cell patch clamp ref 61), 8.34 µM; with human TMEM16Aacd (whole-cell patch clamp ref 63) it was 8.54 µM.
As to `CCc1c(C)nc(SCC(=O)Nc2nc(-c3ccc(OC)cc3)cs2)[nH]c1=O` [T16inh-A01], the “Direct inhibition of X. tropicalis Tmem16a channel function” value on X. tropicalis Tmem16a (maximal conductance, 338 nM free [Ca2+]i, +70 mV) is reported as “did not directly inhibit”. Also, the IC50 on X. tropicalis Tmem16a (setting [3]) was above 30 µM; in the data set with human TMEM16Aacd (whole-cell patch clamp ref 60) it was 1.51 µM; in the data set with human TMEM16Aacd (whole-cell patch clamp ref 63), above 30 µM.
On to `[Ca+2]` [intracellular calcium, calcium], for which the EC50 at X. tropicalis Tmem16a (free [Ca2+]i varied, fixed depolarisation voltage, read-out: EC50 of intracellular calcium for current conductance) turned out to be 0.227 ± 0.043 µM.
Consider “tmem16a splice MO: antisense morpholino oligonucleotide 5'-AATGTTCATTCTTTTTACCTCTTCA-3' targeting donor splice site of exon 2 of tmem16a pre-mRNA (all phosphorodiamidate morpholino (PMO))”, for which the “Tmem16a protein in the plasma membrane of SSCs in the tadpole skin” value in the data set with Tmem16a was “complete loss”. Besides, the “Increase of MucXS secretion from the tadpole skin” value in data set [2] is given as 3 fold.

Values taken from article PMC11514049, “The Tmem16a chloride channel is required for mucin maturation after secretion from goblet-like cells in the Xenopus tropicalis tadpole skin” (Scientific Reports, 2024).
